Assay results reported in US20070142456A1, “Method for inhibiting cancer development by fatty acid synthase inhibitors” (FASgen, LLC, priority 2002, published 2007).

Columns and labels:
[1] = tested on: mammary glands of neu-N transgenic mice; test: Mechanism of action: mammary gland whole mounts and immunohistochemistry in neu-N transgenic mice; type: in vivo, mouse; details: 30 mg/kg ip weekly
Description: (§1) Fifteen 8-10 week old, neu-N transgenic mice were treated intraperitoneally (ip) with C75 at 30 mg/kg weekly, along with fifteen vehicle controls (RPMI). Three mice from the treatment and control groups were sacrificed by carbon dioxide asphyxiation at two-week intervals beginning at week two (two weeks after the first C75 treatment at 8-10 weeks of age). All animals were injected with 1 mg of BrdU two hours prior to sacrifice. Entire inguinal mammary glands were removed along with the intramammary lymph node that was grossly identifiable. Additionally, kidneys, liver and skin samples were collected from each animal. The […] from one side and the kidneys, liver and skin samples were fixed in neutral-buffered formalin, the other was fixed in Carnoy's fixative for whole-mount preparation. In addition, mammary glands from a non-transgenic age-matched FVB/N control mouse were removed for similar analysis at week 10 (age 18-20 weeks).
Following fixation in 10% neutral-buffered formalin for 24 hours, the mammary glands were embedded in paraffin. Six 4 micron slides were prepared from each tissue block, with the first slide stained with hematoxylin and eosin. The remaining unstained sections were utilized for immunohistochemical analysis of the preneoplastic lesions and surrounding breast tissue with the following antibodies: FAS, BrdU and p21/Waf-1 (Dako, Carpinteria, Calif.), Akt and Phospho-Akt (Cell Signaling Technology, Beverly, Mass.), and neu (Santa Cruz Biotechnology, Inc., Santa Cruz, Calif.) apoptosis (ApopTag Peroxidase In Situ Oligo Ligation Kit, Serologicals Corporation, Temecula, Calif.). Staining was assessed by counting the number of positive cells per 500 total cells in the ductal and lobular structures at 400×. Statistical analysis was performed using t-tests on Prism 3 software. The Carnoy's fixed tissue was stained with carmine red as described and whole-mounted on glass slides.

[2] = tested on: HER-2/neu breast cancer transgenic mice; test: Inhibition of cancer development in HER-2/neu breast cancer transgenic mouse model; type: in vivo
Text: Derived from the FVB/N strain, neu-N transgenic mice express the non-transforming rat neu cDNA under the control of a mammary-specific promoter. As a consequence, the mice develop spontaneous mammary adenocarcinomas beginning at approximately 125 days, with nearly all of the mice harboring tumors by 300 days (Guy, C., Webster, M., Schaller, M., Parsons, T., Cardiff, R., and Muller, W., “Expression of the neu protooncogene in the mammary epithelium of transgenic mice induces metastatic disease,” Proc. Natl. Acad. Sci. USA, 89: 10578-10582, 1992). […] Although the activated neu model has the advantage of more rapid tumor development (Guy, C., Cardiff, R., and Muller, W., “Activated neu induces rapid tumor progression,” Journal of Biological Chemistry, 271: 7673-7678, 1996), this point mutation has not been identified in human breast cancer (Lofts, F. and Gullick, W., “C-erbB2 amplification and overexpression in human tumors,” Cancer Treat. Res., 61: 161-179, 1992). Thus, the HER-2/neu breast cancer transgenic mouse model more closely resembles human disease where neu is overexpressed, not mutated.
(See FIG. 4) Thirty HER-2/neu breast cancer transgenic mice were used for the study. Fifteen (15) mice received weekly doses of C75 (30 mg/kg in 0.1 ml RPMI) for three months beginning at 5 weeks of age and 15 mice received vehicle alone. Mice were observed daily and the first appearance of breast tumors were recorded. Two (2) mice in the controls and 6 in the treated group died during the study. […] Fifty-percent (50%) of the control mice developed tumors after approximately 200 days versus 300 days for the C75 treated animals. Moreover, three treated animals remained tumor free for nearly 18 months, the duration of their lives.

NT5 cancer cells = test: Inhibition of NT5 cancer cell growth in vitro (crystal violet, O.D. 490 nm); type: cell-based, mouse; details: 72 hours, FIG. 2
Description: (See FIG. 2). 1×10^4 cells were plated in 24-well plates. Following overnight attachment, cells were treated with C75 or cerulenin diluted in DMSO at 5 mg/ml, with control cells receiving vehicle alone. After 72 hours, cells were stained with crystal violet (0.2% in 10% methanol), solubilized in 1% SDS, and the O.D. measured at 490 nm. Two-tailed t-test: Control-C75 5 μg/ml, p=0.0003; Control-C75 10 μg/ml, p<0.0001; Control-Cerulenin 5 μg/ml, p<0.0001; Control-Cerulenin 10 μg/ml, p<0.0001.

[3] = tested on: fatty acid synthesis in NT5 cancer cells; test: Inhibition of fatty acid synthesis: [14C]acetate incorporation into total lipids in NT5 cells; type: cell-based, mouse; details: 4 h treatment, [14C]acetate during last 2 h, FIG. 1
Description: (See FIG. 1). 5×10^4 NT5 cells were plated in 24-well plates. Following overnight attachment, cells were treated with cerulenin and C75 diluted in DMSO at 5 mg/ml for 4 h, with control cells receiving vehicle alone. During the last 2 h of drug treatment, cells were treated with 1 μCi [^14C]acetate. Total lipids were then extracted and counted. Statistical analysis (i.e., two tailed t-tests) of the results are as follows: Control-C75 5 μg/ml, p=0.116; Control-C75 10 μg/ml, p=0.018; Control-Cerulenin 5 μg/ml, p=0.002; Control-Cerulenin 10 μg/ml, p=0.002.
NT cell lines are established from tumors that developed in transgenic mice (Reilly, R., Gottlieb, M., Ercolini, A., Machiels, J., Kane, C., Okoye, F., Muller, W., Dixon, K., and Jaffee, E., “HER-2neu Is a Tumor Rejection Target in Tolerized HER-2/neu Transgenic Mice,” Cancer Research, 60: 3569-3576, 2000; Reilly, R., Machiels, J., Emens, L., Ercolini, A., Okoye, F., Lei, R., Weintraub, D., and Jaffee, E., “The Collaboration of Both Humoral and Cellular HER-2/neu-targeted Immune Responses Is Required for the Complete Eradication of HER-2/neu-expressing Tumors,” Cancer Research, 61: 880-883, 2001), and provide an in vitro model for testing the FAS inhibitors C75 and cerulenin.

[4] = tested on: NT5 cancer cell allografts; test: Growth of NT5 cancer cell allografts in FVB/N mice; type: in vivo; details: 30 mg/kg intraperitoneal every six days, FIG. 3
Description: (See FIG. 3). Fourteen animals received 0.1 ml packed cultured NT5 cells in the flank. When measurable tumors appeared, seven animals were treated with C75 (30 mg/kg in 0.1 ml RPMI, intraperitoneal injection) every six days and seven animals received vehicle control. Error bars in FIG. 3 represent standard error of the mean.

[5] = tested on: mammary glands of FVB/N mice; test: Mammary gland development in non-transgenic FVB/N control mice treated with C75; type: in vivo; details: FVB/N animals, FIG. 9
Description: as §1

[6] = immunohistochemistry, versus controls and FVB/N mice
[7] = mammary tissue, versus controls and FVB/N mice
[8] = 30 mg/kg weekly for three months beginning at 5 weeks of age

**Q.** How did the “tissue restriction of the effects (other normal duct structures in skin, liver or kidney)” value [1] turn out when C=C1C(=O)OC(CCCCCCCC)C1C(=O)O (stereo not drawn) [C75, tetrahydro-3-methylene-2-oxo-5-n-octyl-4-furancarboxylic acid] was run?
**A.** The value was “restricted to the breast epithelial cells that overexpress neu”.

**Q.** What about the “number of mammary duct structures, their thickness and number of budding epithelial structures” value ([1]; following 8-10 weeks of treatment, versus vehicle controls and FVB/N animals) of the same compound?
**A.** The value was “significant reduction”.

**Q.** What about the Akt expression [1, 6] of the same compound?
**A.** The Akt expression was “decreased”.

**Q.** What about the FAS expression [1, 6] of the same compound?
**A.** The FAS expression was “decreased”.

**Q.** And the Phospho-Akt expression [1, 6]?
**A.** Its Phospho-Akt expression is “decreased”.

**Q.** What about the neu expression [1, 6] of the same compound?
**A.** Its neu expression is “decreased”.

**Q.** What about the p21/Waf1 expression [1, 6] of the same compound?
**A.** Its p21/Waf1 expression is “decreased”.

**Q.** What about the “DNA synthesis (BrdU)” value [1, 7] of the same compound?
**A.** The value was “decreased”.

**Q.** What about the apoptotic changes [1, 7] of the same compound?
**A.** Its apoptotic changes is “increased”.

**Q.** What about the “time after which 50% of the mice developed tumors” value [2, 8] of the same compound?
**A.** The value was roughly 300 days.

**Q.** What about the “tumor development (log-rank analysis)” value [2, 8] of the same compound?
**A.** Its value is “significantly delayed”.

**Q.** And the “time three treated animals remained tumor free (duration of their lives)” value ([2]; 30 mg/kg weekly for three months, three of 15 treated animals)?
**A.** Its value is roughly 18 months.

**Q.** And the development of cancer ([2]; HER-2/neu transgenic mice, FIG. 4)?
**A.** The development of cancer was “significantly inhibited the development of cancer”.

**Q.** What about the “time three animals remained tumor free (duration of their lives)” value ([2]; as restated in the description) of the same compound?
**A.** The value was roughly 1.5 years.

**Q.** What about the “mice that died during the study” value ([2]; treated group of 15 mice, 30 mg/kg weekly, 2 died in controls) of the same compound?
**A.** Its value is 6 mice.

**Q.** And the “growth of NT5 cancer cells (O.D. 490 nm)” value (NT5 cancer cells)?
**A.** The value was “significantly reduced the growth of the cancer cells”.

**Q.** What about the “inhibition of fatty acid synthesis in NT5 cells” value [3] of the same compound?
**A.** The value was “inhibit fatty acid synthesis in NT5 cells at levels similar to previous studies with human cell lines”.

**Q.** And the “growth of NT5 tumor cell allografts” value [4]?
**A.** The value was “significantly reduced the growth”.

**Q.** What about the “morphological difference in mammary structures, C75 treated versus controls” value [5] of the same compound?
**A.** The value was “no significant morphological difference”.

**Q.** How did the “growth of NT5 cancer cells (O.D. 490 nm)” value (NT5 cancer cells) turn out when C/C=C/C/C=C/CCC(=O)[C@H]1O[C@H]1C(N)=O [cerulenin, 2,3-epoxy-4-oxo-7,10-dodecadienoylamide, reference compound] was run?
**A.** The value was “significantly reduced the growth of the cancer cells”.

**Q.** And the “inhibition of fatty acid synthesis in NT5 cells” value [3]?
**A.** Its value is “inhibit fatty acid synthesis in NT5 cells at levels similar to previous studies with human cell lines”.
